Here are results for one compound from publication PMC9570995, “Design, Synthesis, and Biological Evaluation of Novel Dihydropyridine and Pyridine Analogs as Potent Human Tissue Nonspecific Alkaline Phosphatase Inhibitors with Anticancer Activity: ROS and DNA Damage-Induced Apoptosis” (Molecules, 2022).

Common to all, as to type: cell-based
The subject of test [1] is Breast Cancer (MCF-7) Cells. In words: MTT cell viability assay, MCF-7. To be noted: Homo sapiens. The source says:
(§1) An MTT assay was used to determine the viability of the cells under examination in the desired medium. The mitochondrial dehydrogenase enzyme of the viable cells has a key role in the conversion of the yellow water-soluble substrate 3-(4,5-dimethylthiazol-2-y1)-2,5 diphenyl tetrazolium bromide (MTT) into a dark blue formazan product that is insoluble in water. The anticancer activity of the novel synthetic derivatives (4a–4k) was investigated through an MTT assay, with small modifications following the already published protocols against cancer cell lines (HeLa and MCF-7), using cisplatin as a reference drug. The cytotoxic effect of the tested compounds at 100 µM concentration was determined and represented as the percent growth inhibition compared with the untreated control cells. The first series comprised dihydropyridines analogous from 4a–4f with various substitution patterns on the phenyl ring. […] It is presumed that the 1-naphthyl containing compound 4c was locked in a configuration that is not favorable for an interaction with amino acid residues.
(§2) The anti-proliferative activity of the synthesized compounds was determined in MCF-7 and HeLa cells by an MTT cell viability assay, as described earlier. Briefly, we seeded 1 × 10^4 cells/well in a sterile 96-well culture microtiter plate and incubated them in a 5% CO2 incubator at 37 °C for 24 h. […] After 24 h, the cells were treated with 0.2 mg/mL of MTT reagent for 4 h. We added 10% acidified SDS (sodium dodecyl sulfate) solubilizing solution in propanol (1:1) to solubilize the formazan crystals. After 30 min at 37 °C, the plate was placed on a gyratory shaker to completely dissolve the formazan crystals. The plate was placed on a microplate reader to measure the optical density at 570 nm. The IC50 values were calculated from three independent experiments as previously reported.
(Tetrazolium assays rely on reduction of a dye to a coloured formazan, in cell work by metabolically active cells.)

The test system of test [2] is Cervical Cancer (HeLa) Cells. In words: MTT cell viability assay, HeLa. To be noted: Homo sapiens, HeLa.
Text: as §1, §2

In a further test the test system is normal BHK-21 cells. In words: MTT assay on normal cells. The settings on record: Mesocricetus auratus, rapidly growing non-cancerous cells.

In general, inhibition refers to the relative decrease from the control value, in per cent. Higher therefore signals a strong effect. The term IC50 denotes the midpoint of a concentration-inhibition curve.

For `N#CC1=C(N)N(Cc2ccccc2)C(N)=C(C#N)C1c1ccc2ccccc2c1` [Compound 4d, 2,6-Diamino-1-benzyl-4-(naphthalen-2-yl)-1,4-dihydropyridine-3,5-dicarbonitrile], the inhibition at 100 µM in test [1] (MCF7, 100 µM, 24 h) turned out to be 85.8%; in test [2] (100 µM, 24 h), 82.7%. Moreover, the IC50 is 38.7 ± 2.31 µM in test [1] (MCF7, unit given, read-out: Breast Cancer (MCF-7) Cells IC50 Values ± SEM); 53.47 ± 0.5 µM in test [2] (unit given, read-out: Cervical Cancer (HeLa) Cells IC50 Values ± SEM); 71.1 ± 3.18 µM in the test with normal BHK-21 cells.
